Here are results for 3 molecules from US4746736A, “Carbapenem antibiotics” (priority 1986, dated 1988).

Values after ≈ are worked out from the molar mass of the structure shown. Counter-ions that a name gives are not always drawn. Like-named read-outs stand apart in the source and are kept apart here. Bounds are passed on as bounds.

One data set has as its system S. pneumoniae A-9585. In words: In vitro MIC by tube dilution, S. pneumoniae A-9585. In kind it is cell-based.
In a further data set the test system is S. pyogenes A9604. In words: In vitro MIC by tube dilution, S. pyogenes A9604. The format is cell-based.
In a further data set the test system is S. aureus A-9537. Put plainly: In vitro MIC by tube dilution, S. aureus A-9537. The format is cell-based.
The subject of data set [1] is S. aureus A-9606 (Pen-res.). Put plainly: In vitro MIC by tube dilution, S. aureus A-9606 (Pen-res.). In kind it is cell-based. To be noted: S. aureus A-9606 (Pen-res).
Another data set has as its system S. faecalis A20688. In words: In vitro MIC by tube dilution, S. faecalis A20688. In kind it is cell-based.
The test system of a further data set is E. coli A15119. Put plainly: In vitro MIC by tube dilution, E. coli A15119. The format is cell-based. To be noted: E. coli A15119.
A further data set has as its system E. coli A20341-1. Put plainly: In vitro MIC by tube dilution, E. coli A20341-1. The format is cell-based.
The next data set has as its system K. pneumoniae A-9664. Put plainly: In vitro MIC by tube dilution, K. pneumoniae A-9664. In kind it is cell-based.
In the next data set the test system is K. pneumoniae A20468. Put plainly: In vitro MIC by tube dilution, K. pneumoniae A20468. The format is cell-based.
The subject of a further data set is P. mirabilis A-9900. Put plainly: In vitro MIC by tube dilution, P. mirabilis A-9900. In kind it is cell-based.
The test system of another data set is P. vulgaris A21559. In words: In vitro MIC by tube dilution, P. vulgaris A21559. In kind it is cell-based. The settings on record: P. vulgaris A21559.
The next data set concerns P. morganii A15153. Put plainly: In vitro MIC by tube dilution, P. morganii (M. morganii) A15153. The format is cell-based.
The test system of another data set is P. rettgeri A22424. In words: In vitro MIC by tube dilution, P. rettgeri A22424. The format is cell-based.
For a further data set, the system named is S. marcescens A20019. Put plainly: In vitro MIC by tube dilution, S. marcescens A20019. The format is cell-based.
For the next data set, the system named is E. cloacae A-9656. Put plainly: In vitro MIC by tube dilution, E. cloacae A-9656. In kind it is cell-based.
In data set [2] the test system is P. aeruginosa A-9843A. Put plainly: In vitro MIC by tube dilution, P. aeruginosa A-9843A. In kind it is cell-based. To be noted: P. aeruginosa A-9843a.
The next data set concerns P. aeruginosa A21213. In words: In vitro MIC by tube dilution, P. aeruginosa A21213. The format is cell-based. To be noted: P. aeruginosa A21213.
For another data set, the system named is E. cloacae A-9659. In words: In vitro MIC by tube dilution, E. cloacae A-9659. The format is cell-based.
For data set [3], the system named is P. aeruginosa A-9843a. In kind it is in vivo. To be noted: P. aeruginosa A9843A, mice, i.m.
Experimental: The PD50 (dose in mg/kg required to give protection to 50% of the infected mice) is indicated.
Treatment Schedule: Except for E. coli A15119 and K. pneumoniae A9964,
mice were treated i.m. with drugs 0 and 2 hours postinfection.
5 mice per dose were used for each test
The PD50 (dose in mg/kg) required to give protection to 50% of the infected mice is indicated.
Data set [4] is described as follows: Blood levels in mice after intramuscular administration. To be noted: 20 mg/kg i.m., mice (compiled table).
Text: Compounds were solubilized in 0.1 M phosphate buffer pH 7.
Values are from a single test; 4 mice used per compound.
Compounds were solubilized in 0.1 M phosphate buffer, pH 7.
Values based on a single test; 4 mice per compound.
A further data set deals with H. influenzae A20178. Put plainly: In vitro MIC by tube dilution, H. influenzae A20178. The format is cell-based. The settings on record: Haemophilus influenzae.
A further data set has as its system H. influenzae A21522. In words: In vitro MIC by tube dilution, H. influenzae A21522. The format is cell-based. To be noted: Haemophilus influenzae.
For the next data set, the system named is H. influenzae A-9833. Put plainly: In vitro MIC by tube dilution, H. influenzae A-9833. In kind it is cell-based. To be noted: Haemophilus influenzae, A9833.
For a further data set, the system named is H. influenzae A21518. In words: In vitro MIC by tube dilution, H. influenzae A21518. To be noted: Haemophilus influenzae. The format is cell-based.

As for “3-[4-(N,N-dimethyl-1,2,3-triazolium)methylthio]-6α-[1-(R)-hydroxyethyl]-7-oxo-1-azabicyclo(3.2.0)hept-2-ene-2-carboxylate [Example 15 "B"]”, the MIC is 0.0005 µg/mL in the data set with S. pneumoniae A-9585 (S. pneumoniae A-9585); 0.001 µg/mL in the data set with S. pyogenes A9604 (S. pyogenes A-9604); 0.016 µg/mL in the data set with S. aureus A-9537 (S. aureus A-9537 +50% serum); 0.004 µg/mL with S. aureus A-9537 (S. aureus A-9537, no serum); 0.008 µg/mL in data set [1]; 0.5 µg/mL with S. faecalis A20688 (S. faecalis A20688). Besides, the MIC against E. coli A15119 amounted to 0.008 µg/mL; in the data set on E. coli A20341-1, 0.008 µg/mL; in the data set on K. pneumoniae A-9664, 0.03 µg/mL; with K. pneumoniae A20468 (K. pneumoniae A20468) it was 0.016 µg/mL; in the data set on P. mirabilis A-9900 (P. mirabilis A-9900), 0.03 µg/mL; against P. vulgaris A21559, 0.008 µg/mL. Moreover, the MIC in the data set with P. morganii A15153 (M. morganii A15153) is 0.06 µg/mL; against P. rettgeri A22424 (P. rettgeri A22424) it was 0.13 µg/mL; against S. marcescens A20019, 0.016 µg/mL; in the data set on E. cloacae A-9656 (E. cloacae A-9656), 0.03 µg/mL; against P. aeruginosa A-9843A [2] it was 2 µg/mL; against P. aeruginosa A21213, 0.13 µg/mL. Further, in the data set on E. cloacae A-9659 (E. cloacae A-9659), the MIC stood at 0.016 µg/mL. In addition, in the data set on P. aeruginosa A-9843a [3], the PD50/treatment was found to be 0.89 mg/kg. The AUC (in general, the area under the concentration-time curve, a measure of exposure) in data set [4] turned out to be 7400 ng·h/mL. For the same molecule, the Cmax – broadly, the peak of the concentration-time curve – in data set [4] was found to be 15900 ng/mL.

As for `C[C@@H](O)[C@H]1C(=O)N2C(C(=O)[O-])=C(SCc3cc[n+](C)cc3)C[C@H]12` [Example 1, 1-Methyl-4-[2-carboxy-6α-[1(R)-hydroxyethyl]-7-oxo-1-azabicyclo[3.2.0]hept-2-en-3-thiomethyl]pyridinium hydroxide inner salt], the figures for the MIC in the data set on H. influenzae A20178 and in the data set on H. influenzae A21522 were 32 µg/mL and 8 µg/mL, respectively.

On to `Cc1ccc[n+](C)c1CSC1=C(C(=O)[O-])N2C(=O)[C@H]([C@@H](C)O)[C@H]2C1` [Example 7, 3-(N-Methyl-3-methylpyridine-2-methanethio)-6α-[1-(R)-hydroxyethyl]-7-oxo-1-azabicyclo(3.2.0)hept-2-ene-2-carboxylate], for which the MIC in the data set on S. pneumoniae A-9585 (Streptococcus pneumoniae, A9585, S. pneumoniae A-9585, read-out: MIC) is 0.004 µg/mL (≈ 0.0115 µM); in the data set with S. pyogenes A9604 (Streptococcus pyogenes, A9604, S. pyogenes A-9604, read-out: MIC) it was 0.004 µg/mL (≈ 0.0115 µM); in the data set on S. aureus A-9537 (Staphylococcus aureus, A9537, S. aureus A-9537 +50% serum, read-out: MIC) it was 0.03 µg/mL (≈ 0.0861 µM); in the data set with S. aureus A-9537 (Staphylococcus aureus, A9537, S. aureus A-9537, no serum, read-out: MIC) it was 0.008 µg/mL (≈ 0.023 µM); in [1] (Staphylococcus aureus, read-out: MIC) it was 0.016 µg/mL (≈ 0.0459 µM); in the data set on S. faecalis A20688 (Enterococcus faecalis, A20688, S. faecalis A20688, read-out: MIC), 0.13 µg/mL (≈ 0.373 µM). Moreover, the MIC in the data set on E. coli A15119 (Escherichia coli, read-out: MIC) was 0.004 µg/mL (≈ 0.0115 µM); in the data set with E. coli A20341-1 (Escherichia coli, A203411, read-out: MIC), 0.004 µg/mL (≈ 0.0115 µM); with K. pneumoniae A-9664 (Klebsiella pneumoniae, A9664, read-out: MIC), 0.016 µg/mL (≈ 0.0459 µM); in the data set with K. pneumoniae A20468 (Klebsiella pneumoniae, A20468, K. pneumoniae A20468, read-out: MIC), 0.016 µg/mL (≈ 0.0459 µM); with P. mirabilis A-9900 (Proteus mirabilis, A9900, P. mirabilis A-9900, read-out: MIC) it was 0.016 µg/mL (≈ 0.0459 µM); in the data set with P. morganii A15153 (Morganella morganii, A15153, M. morganii A15153, read-out: MIC), 0.016 µg/mL (≈ 0.0459 µM). The MIC is 0.06 µg/mL (≈ 0.172 µM) in the data set with P. rettgeri A22424 (Providencia rettgeri, A22424, P. rettgeri A22424, read-out: MIC); 0.008 µg/mL (≈ 0.023 µM) with S. marcescens A20019 (Serratia marcescens, read-out: MIC); 0.016 µg/mL (≈ 0.0459 µM) in the data set on E. cloacae A-9656 (Enterobacter cloacae, A9656, E. cloacae A-9656, read-out: MIC); 1 µg/mL (≈ 2.87 µM) in the data set on P. aeruginosa A-9843A [2] (Pseudomonas aeruginosa, A9843A, read-out: MIC); more than 32 µg/mL in the data set with H. influenzae A-9833; more than 32 µg/mL in the data set on H. influenzae A21518. In the data set on E. cloacae A-9659 (Enterobacter cloacae, A9659, E. cloacae A-9659, read-out: MIC), the MIC amounted to 0.016 µg/mL (≈ 0.0459 µM).
